Reference: patent publication US20130225609A1, “COMBINATIONS OF MEDICAMENTS, CONTAINING PDE4-INHIBITORS AND EP4-RECEPTOR-ANTAGONISTS” (BOEHRINGER INGELHEIM INTERNATIONAL GMBH, priority 2010, published 2013)

Columns and labels:
[1] = Experiment 3: EP4 antagonist MF498 and roflumilast-mediated side effects in rats; type: in vivo, male Wistar rats; conditions: four days
Experimental: Six male Wistar rats were given a daily dosage of 0.5% Natrosol (Placebo) at 1300 hours.
Six male Wistar rats were given a daily dosage of 20 mg/kg MF-498 (EP4 antagonist) in each case at 1300 hours.
Six male Wistar rats were given a daily dosage of 10 mg/kg Roflumilast (PDE4 inhibitor) at 1300 hours.

[2] = Experiment 2: Lumiracoxib (COX-2 selective) / SC-560 (COX-1 selective) and roflumilast-mediated side effects in rats; type: in vivo, male Wistar rats; conditions: four days
From the text: Six male Wistar rats were given a daily dosage of 0.5%
For pharmacokinetic analysis (determining plasma levels of the substances) one rat from each group was used on day 4; these rats were no longer available for the investigation of other parameters.

[3] = Experiment 4: EP2-preferential antagonist AH6809 and roflumilast-mediated side effects in rats; type: in vivo, male Wistar rats; conditions: four days
Experimental: Six male Wistar rats were given a daily dosage of 10 mg/kg AH-6809 (preferential EP2 antagonist) at 1300 hours. Six male Wistar rats were given a daily dosage of 10 mg/kg Roflumilast (PDE4 inhibitor) at 1300 hours.

[4] = Experiment 1: diclofenac and roflumilast-mediated side effects in rats
Experimental: Six male Wistar rats in each group were treated for four days with the following substances (all substances are given p.o.=orally):
Group 1 (“Control Group”):
Six male Wistar rats were given a daily dose of 0.5% Natrosol (placebo) at the times 0800, 1300 and 1700 hours.
Group 2 (“Diclofenac Group”):
Six male Wistar rats were given a daily dose of 1 mg/kg of diclofenac (NSAID) at the times 0800 and 1700 hours and 0.5% Natrosol (placebo) at 1300 hours.
Group 3 (“Roflumilast Group”):
Six male Wistar rats were given a daily dose of 0.5% Natrosol (placebo) at 0800 and 1700 hours and 10 mg/kg roflumilast (PDE4 inhibitor) at 1300 hours.
Group 4 (“Roflumilast+Diclofenac Group”):
Six male Wistar rats were given a daily dose of 1 mg/kg diclofenac (NSAID) at the times 0800 and 1700 hours and 10 mg/kg roflumilast (PDE4 inhibitor) at 1300 hours.
For pharmacokinetic analysis (determining the plasma levels of the substances) on day 4 one rat from each group was used; these rats were no longer available for other parameters under investigation.
During the experiment the body weights of the animals were determined and the differences in the body weights of the rats from the different groups towards the end of the experiment were shown as a percentage change from the time of the first administration (=day 1, 0800 hours (=time t0)). The average±standard deviation of the body weights at time t0 was 355±17 g.
At the end of the experiment (day 5, 95 hours after t0 (=the time of the first administration on day 1, 0800)) the proportion of neutrophils (in % of white blood cells, FIG. 2) were determined from the blood of 4 or 5 of the rats from the individual groups. In addition, the weights of the animals' spleens were measured and the mesenteries were dissected for histopathological investigation for vasculitis (multifocal perivascular mononuclear/polymorphonuclear infiltration).

[5] = 20 mg/kg p.o. + 10 mg/kg roflumilast p.o. at 1300 hours
[6] = 2 mg/kg p.o. at 0800 and 1700 hours + 10 mg/kg roflumilast p.o. at 1300 hours
[7] = Roflumilast group: 10 mg/kg roflumilast p.o. daily
[8] = 1 mg/kg p.o. at 0800 and 1700 hours + 10 mg/kg roflumilast p.o. at 1300 hours, four days
[9] = 10 mg/kg p.o. + 10 mg/kg roflumilast p.o. at 1300 hours

Compound: CCOc1c2c(c(OCC)c3ncccc13)CN(c1ccc(CS(=O)(=O)NC(=O)Cc3ccccc3OC)cc1C)C2=O [MF-498, N-{[4-(5,9-diethoxy-6-oxo-6,8-dihydro-7H-pyrrolo[3,4-g]quinolin-7-yl)-3-methylbenzyl]sulphonyl}-2-(2-methoxyphenyl)acetamide]
- effect of co-administration on roflumilast-mediated loss of body weight (FIG. 9) [1, 5]: substantially reduced
- effect of co-administration on roflumilast-mediated loss of spleen weight (FIG. 10) [1, 5]: substantially reduced
- effect of co-administration on roflumilast-mediated mesenteric vasculitis (FIG. 12) [1, 5]: substantially reduced
- effect of co-administration on roflumilast-mediated neutrophilia (FIG. 11) [1, 5]: substantially reduced
- differences in the weight of the spleen between the Roflumilast group and the Roflumilast+MF-498 group (statistics) ([1]; 20 mg/kg p.o. + 10 mg/kg roflumilast p.o., two-way analysis of variance): do not achieve statistical significance
- parameters measured after administration on its own (body weight, spleen weight, neutrophils, vasculitis) ([1]; 20 mg/kg p.o. daily, without roflumilast): very similar to the control group

Compound: Cc1ccc(Nc2c(F)cccc2Cl)c(CC(=O)O)c1 [Lumiracoxib]
- effect of co-administration on roflumilast-mediated loss of body weight (FIG. 5) [2, 6]: substantially reduced or prevented
- effect of co-administration on roflumilast-mediated loss of spleen weight (FIG. 6) [2, 6]: substantially reduced or prevented
- effect of co-administration on roflumilast-mediated mesenteric vasculitis (FIG. 8) [2, 6]: substantially reduced or prevented
- effect of co-administration on roflumilast-mediated neutrophilia (FIG. 7) [2, 6]: substantially reduced or prevented
- parameters measured after administration on its own (body weight, spleen weight, neutrophils, vasculitis) ([2]; 2 mg/kg p.o. at 0800 and 1700 hours, without roflumilast): very similar to the control groups

Compound: O=C(Nc1c(Cl)cncc1Cl)c1ccc(OC(F)F)c(OCC2CC2)c1 [Roflumilast]
- loss of body weight (FIG. 13) [3, 7]: observed
- loss of spleen weight (FIG. 14) [3, 7]: observed
- mesenteric vasculitis (monocyte/polymorphonuclear perivascular infiltration in the mesentery, FIG. 16) [3, 7]: observed
- neutrophilia (FIG. 15) [3, 7]: observed
- loss of body weight (FIG. 9) [1, 7]: observed
- loss of spleen weight (FIG. 10) [1, 7]: observed
- mesenteric vasculitis (monocyte/polymorphonuclear perivascular infiltration into the mesentery, FIG. 12) [1, 7]: observed
- neutrophilia (FIG. 11) [1, 7]: observed
- loss of body weight (FIG. 5) [2, 7]: observed
- loss of spleen weight (FIG. 6) [2, 7]: observed
- mesenteric vasculitis (monocyte/polymorphonuclear perivascular infiltration into the mesentery, FIG. 8) [2, 7]: observed
- neutrophilia (FIG. 7) [2, 7]: observed
- death of animals ([4]; Roflumilast group: 10 mg/kg p.o. daily, six rats per group): one rat from the roflumilast group which died between day 4 and day 5

Compound: O=C(O)Cc1ccccc1Nc1c(Cl)cccc1Cl [diclofenac]
- effect of co-administration on roflumilast-mediated loss of body weight (FIG. 1) [4, 8]: substantially reduced or prevented
- effect of co-administration on roflumilast-mediated loss of spleen weight (FIG. 2) [4, 8]: substantially reduced or prevented
- effect of co-administration on roflumilast-mediated mesenteric vasculitis (FIG. 4) [4, 8]: substantially reduced or prevented
- effect of co-administration on roflumilast-mediated neutrophilia (FIG. 3) [4, 8]: substantially reduced or prevented
- parameters measured after administration on its own (body weight, spleen weight, neutrophils, vasculitis) ([4]; 1 mg/kg p.o. at 0800 and 1700 hours, four days, without roflumilast): very similar to the control groups

Compound: CC(C)Oc1ccc2c(=O)c3cc(C(=O)O)ccc3oc2c1 [AH6809, 6-isopropoxy-9-oxoxanthene-2-carboxylic acid]
- effect of co-administration on roflumilast-mediated loss of body weight (FIG. 13) [3, 9]: no indications that the EP2 preferential receptor antagonist AH-809 had any influence
- effect of co-administration on roflumilast-mediated loss of spleen weight (FIG. 14) [3, 9]: no indications that the EP2 preferential receptor antagonist AH-809 had any influence
- effect of co-administration on roflumilast-mediated mesenteric vasculitis (FIG. 16) [3, 9]: no indications that the EP2 preferential receptor antagonist AH-809 had any influence
- effect of co-administration on roflumilast-mediated neutrophilia (FIG. 15) [3, 9]: no indications that the EP2 preferential receptor antagonist AH-809 had any influence
- effect of EP2 blockage on the parameters measured (roflumilast-mediated side effects, overall) ([3]; 10 mg/kg p.o. + 10 mg/kg roflumilast p.o.): shows no effect on the parameters measured
- parameters measured after administration on its own (body weight, spleen weight, neutrophils, vasculitis) ([3]; 10 mg/kg p.o. daily, without roflumilast): very similar to the control group
